Patent publication US12371454B2, “Cyclic peptide compound having Kras inhibitory action” (priority 2019, dated 2025)
pIC50: −log10 of the molar value. Positions of bridges follow the written chain, without caps; N, C: chain ends. Non-standard residues stand in square brackets, D forms with d. Residues, ends and D or L forms follow the SMILES beside them. *: point of attachment. hPhe(3-Cl-4-CF3) = N[C@@H](CCc1ccc(C(F)(F)F)c(Cl)c1)C(=O)O; NMePhe(4-CF3) = CN[C@@H](Cc1ccc(C(F)(F)F)cc1)C(=O)O; NMePhe(4-Me) = CN[C@@H](Cc1ccc(C)cc1)C(=O)O; NMePhe(4-F) = CN[C@@H](Cc1ccc(F)cc1)C(=O)O; NMeNva(5,5-F2) = CN[C@@H](CCC(F)F)C(=O)O; NMeGly(cPent) = CN[C@H](C(=O)O)C1CCCC1; NMeCha = CN[C@@H](CC1CCCCC1)C(=O)O; NMeChg = CN[C@H](C(=O)O)C1CCCCC1; NMeF = CN[C@@H](Cc1ccccc1)C(=O)O; NMeI = CC[C@H](C)[C@H](NC)C(=O)O; NMeD = CN[C@@H](CC(=O)O)C(=O)O; dNMeD = CN[C@H](CC(=O)O)C(=O)O; NMeL = CN[C@@H](CC(C)C)C(=O)O; Cba = N[C@@H](CC1CCC1)C(=O)O; NMeV = CN[C@H](C(=O)O)C(C)C; d(β3hA) = C[C@@H](N)CC(=O)O; NMeAbu = CC[C@H](NC)C(=O)O; NMeS = CN[C@@H](CO)C(=O)O; Morpholide = C1CN(*)CCO1; NMeA = CN[C@@H](C)C(=O)O; Piperidide = C1CCN(*)CC1; Pyrrolidide = C1CCN(*)C1; dNMeA = CN[C@H](C)C(=O)O; Ac5c = NC1(C(=O)O)CCCC1; Aze = O=C(O)[C@@H]1CCN1; Abu = CC[C@H](N)C(=O)O; Sar = CNCC(=O)O; Propyl = CCC*

target: T1, Kras and SOS1 (biotin-tagged human Kras loaded with GDP, His-tagged human SOS1) (Homo sapiens, UniProt P01116, G12D); assay: Protein-protein interaction inhibition between Kras and SOS1 (KrasGl2D-SOS PPI) using AlphaScreen; format: binding; conditions: AlphaScreen; biotin-tagged human Kras loaded with GDP, His-tagged human SOS1; read-out: KRAS G12D-SOS PPI IC50
T1 construct: made in house; host or cells: E. coli (stated for Kras only)
T1 sequence (P01116 1-188 isoform P01116-2 G12D): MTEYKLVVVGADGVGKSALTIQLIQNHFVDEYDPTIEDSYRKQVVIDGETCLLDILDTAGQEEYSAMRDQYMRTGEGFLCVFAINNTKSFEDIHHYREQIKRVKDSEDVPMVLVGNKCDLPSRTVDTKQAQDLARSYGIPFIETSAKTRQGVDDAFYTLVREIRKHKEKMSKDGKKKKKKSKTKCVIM
Summary of the method: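 Donor beads (nickel) hold His-SOS1; acceptor beads (streptavidin) hold biotin-Kras bound to GDP. Signal measured at 520-620 nm following 680 nm excitation.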

Compared with `CC[C@H](C)[C@@H]1NC(=O)[C@H](CC(C)C)N(C)C(=O)C[C@H](C(=O)N2CCCC2)N(C)C(=O)[C@H]([C@@H](C)CC)N(C)C(=O)C2(CCCC2)NC(=O)[C@@H]2CCCN2C(=O)[C@H](CCc2ccc(C(F)(F)F)c(Cl)c2)NC(=O)CN(C)C(=O)[C@H](Cc2ccc(C(F)(F)F)cc2)N(C)C(=O)[C@@H]2CCN2C(=O)[C@H](C)N(C)C1=O` [Compound 1734] ([NMeL]I[NMeA][Aze][NMePhe(4-CF3)][Sar][hPhe(3-Cl-4-CF3)]P[Ac5c][NMeI][dNMeD]-Pyrrolidide; lactam N-11), `CC[C@H](C)[C@@H]1NC(=O)[C@H](CC(C)C)N(C)C(=O)C[C@@H](C(=O)N(C)C)N(C)C(=O)[C@H](C2CCCC2)N(C)C(=O)C2(CCCC2)NC(=O)[C@@H]2CCCN2C(=O)[C@H](CCc2ccc(C(F)(F)F)c(Cl)c2)NC(=O)CN(C)C(=O)[C@H](Cc2ccc(C)cc2)N(C)C(=O)[C@@H]2CCN2C(=O)[C@H](C)N(C)C1=O` [Compound 1756] ([NMeL]I[NMeA][Aze][NMePhe(4-Me)][Sar][hPhe(3-Cl-4-CF3)]P[Ac5c][NMeGly(cPent)][NMeD]-NMe2; lactam N-11) is 2.12 log units higher in pIC50: 7.15 for the first, 9.27 for the second.

`CCCOC[C@@H]1NC(=O)[C@H](CC(C)C)N(C)C(=O)C[C@@H](C(=O)N2CCCCC2)N(C)C(=O)[C@H](C2CCCCC2)N(C)C(=O)C2(CCCC2)NC(=O)[C@@H]2CCCN2C(=O)[C@H](CCc2ccc(C(F)(F)F)c(Cl)c2)NC(=O)CN(C)C(=O)[C@H](CC2CCCCC2)N(C)C(=O)CN(C)C(=O)CN(C)C1=O` [Compound 1736] ([NMeL]S(Propyl)[Sar][Sar][NMeCha][Sar][hPhe(3-Cl-4-CF3)]P[Ac5c][NMeChg][NMeD]-Piperidide; lactam N-11) and `CC[C@@H]1NC(=O)[C@H](CC(C)C)N(C)C(=O)C[C@@H](C(=O)N2CCCCC2)N(C)C(=O)[C@H](C2CCCCC2)N(C)C(=O)C2(CCCC2)NC(=O)[C@@H]2CCCN2C(=O)[C@H](CCc2ccc(C(F)(F)F)c(Cl)c2)NC(=O)CN(C)C(=O)[C@H](CC2CCCCC2)N(C)C(=O)CN(C)C(=O)CN(C)C1=O` [Compound 1775] ([NMeL][Abu][Sar][Sar][NMeCha][Sar][hPhe(3-Cl-4-CF3)]P[Ac5c][NMeChg][NMeD]-Piperidide; lactam N-11) are within 0.2 log units of each other in pIC50: 8.37 for the first, 8.40 for the second.

Compared with `CC[C@H](C)[C@@H]1NC(=O)[C@H](CC(C)C)N(C)C(=O)C[C@@H](C(=O)N2CCCCC2)N(C)C(=O)[C@H](CC)N(C)C(=O)C2(CCCC2)NC(=O)[C@@H]2CCCN2C(=O)[C@H](CCc2ccc(C(F)(F)F)c(Cl)c2)NC(=O)CN(C)C(=O)[C@H](CC2CCCCC2)N(C)C(=O)CN(C)C(=O)CN(C)C1=O` [Compound 1741] ([NMeL]I[Sar][Sar][NMeCha][Sar][hPhe(3-Cl-4-CF3)]P[Ac5c][NMeAbu][NMeD]-Piperidide; lactam N-11), `CCCOC[C@H]1C(=O)N(C)[C@H](C(=O)N2CCCCC2)CC(=O)N(C)[C@@H](CC(C)C)C(=O)N[C@@H]([C@@H](C)CC)C(=O)N(C)CC(=O)N(C)CC(=O)N(C)[C@@H](CC2CCCCC2)C(=O)N(C)CC(=O)N[C@@H](CCc2ccc(C(F)(F)F)c(Cl)c2)C(=O)N2CCC[C@H]2C(=O)NC2(CCCC2)C(=O)N1C` [Compound 1771] ([NMeL]I[Sar][Sar][NMeCha][Sar][hPhe(3-Cl-4-CF3)]P[Ac5c][NMeS](Propyl)[NMeD]-Piperidide; lactam N-11) is 1.31 log units lower in pIC50: 8.42 for the first, 7.11 for the second. The first is the more potent here.

First: CC[C@H](C)[C@@H]1NC(=O)[C@H](CC(C)C)N(C)C(=O)C[C@@H](C(=O)N2CCCCC2)N(C)C(=O)[C@H](C2CCCCC2)N(C)C(=O)C2(CCCC2)NC(=O)[C@@H]2CCCN2C(=O)[C@H](CCc2ccc(C(F)(F)F)c(Cl)c2)NC(=O)CN(C)C(=O)[C@H](CC)N(C)C(=O)CN(C)C(=O)CN(C)C1=O [Compound 1743] ([NMeL]I[Sar][Sar][NMeAbu][Sar][hPhe(3-Cl-4-CF3)]P[Ac5c][NMeChg][NMeD]-Piperidide; lactam N-11)
Second: CC[C@H](C)[C@@H]1NC(=O)[C@H](CC(C)C)N(C)C(=O)C[C@H](C(=O)N2CCCC2)N(C)C(=O)[C@H](C2CCCC2)N(C)C(=O)C2(CCCC2)NC(=O)[C@@H]2CCCN2C(=O)[C@H](CCc2ccc(C(F)(F)F)c(Cl)c2)NC(=O)CN(C)C(=O)[C@H](CC2CCCCC2)N(C)C(=O)CN(C)C(=O)CN(C)C1=O [Compound 1794] ([NMeL]I[Sar][Sar][NMeCha][Sar][hPhe(3-Cl-4-CF3)]P[Ac5c][NMeGly(cPent)][dNMeD]-Pyrrolidide; lactam N-11)
The pIC50 of the first is 1.49 log units higher: 8.89 for the first, 7.40 for the second.

First: CC[C@H](C)[C@@H]1NC(=O)[C@H](C)N(C)C(=O)C[C@@H](C(=O)N2CCCCC2)N(C)C(=O)[C@H](C(C)C)N(C)C(=O)C2(CCCC2)NC(=O)[C@@H]2CCCN2C(=O)[C@H](CCc2ccc(C(F)(F)F)c(Cl)c2)NC(=O)CN(C)C(=O)[C@H](Cc2ccccc2)N(C)C(=O)[C@@H]2CCCN2C(=O)CN(C)C1=O [Compound 1753] ([NMeA]I[Sar]P[NMeF][Sar][hPhe(3-Cl-4-CF3)]P[Ac5c][NMeV][NMeD]-Piperidide; lactam N-11)
Second: CC[C@H](C)[C@@H]1NC(=O)[C@H](C)N(C)C(=O)C[C@@H](C)NC(=O)[C@H](C(C)C)N(C)C(=O)C2(CCCC2)NC(=O)[C@@H]2CCCN2C(=O)[C@H](CCc2ccc(C(F)(F)F)c(Cl)c2)NC(=O)CN(C)C(=O)[C@H](Cc2ccccc2)N(C)C(=O)[C@@H]2CCCN2C(=O)CN(C)C1=O [Compound 1778] (cyclo([Ac5c][NMeV][d(β3hA)][NMeA]I[Sar]P[NMeF][Sar][hPhe(3-Cl-4-CF3)]P))
The pIC50 of the first is 0.46 log units higher: 8.60 for the first, 8.14 for the second. The first is the more potent here.

Compared with `CC(C)C[C@@H]1NC(=O)[C@H](CC(C)C)N(C)C(=O)C[C@@H](C(=O)N2CCCCC2)N(C)C(=O)[C@H](C(C)C)N(C)C(=O)C2(CCCC2)NC(=O)[C@@H]2CCCN2C(=O)[C@H](CCc2ccc(C(F)(F)F)c(Cl)c2)NC(=O)CN(C)C(=O)[C@H](CC2CCCCC2)N(C)C(=O)[C@@H]2CCN2C(=O)[C@H](C)N(C)C1=O` [Compound 1754] ([NMeL]L[NMeA][Aze][NMeCha][Sar][hPhe(3-Cl-4-CF3)]P[Ac5c][NMeV][NMeD]-Piperidide; lactam N-11), `CC(C)C[C@H]1C(=O)N[C@@H](CO)C(=O)N(C)[C@@H](C)C(=O)N2CC[C@H]2C(=O)N(C)[C@@H](CC2CCCCC2)C(=O)N(C)CC(=O)N[C@@H](CCc2ccc(C(F)(F)F)c(Cl)c2)C(=O)N2CCC[C@H]2C(=O)NC2(CCCC2)C(=O)N(C)[C@@H](C(C)C)C(=O)N(C)[C@H](C(=O)N2CCCCC2)CC(=O)N1C` [Compound 1768] ([NMeL]S[NMeA][Aze][NMeCha][Sar][hPhe(3-Cl-4-CF3)]P[Ac5c][NMeV][NMeD]-Piperidide; lactam N-11) is 0.32 log units lower in pIC50: 7.17 for the first, 6.85 for the second.

Compared with `CC[C@H](C)[C@@H]1NC(=O)[C@H](C)N(C)C(=O)C[C@@H](C(=O)N2CCCCC2)N(C)C(=O)[C@H](C(C)C)N(C)C(=O)C2(CCCC2)NC(=O)[C@@H]2CCCN2C(=O)[C@H](CCc2ccc(C(F)(F)F)c(Cl)c2)NC(=O)[C@@H](C)N(C)C(=O)[C@H](Cc2ccc(F)cc2)N(C)C(=O)CN(C)C(=O)CN(C)C1=O` [Compound 1755] ([NMeA]I[Sar][Sar][NMePhe(4-F)][dNMeA][hPhe(3-Cl-4-CF3)]P[Ac5c][NMeV][NMeD]-Piperidide; lactam N-11), `CC[C@H](C)[C@@H]1NC(=O)[C@H](C)N(C)C(=O)C[C@@H](C(=O)N2CCOCC2)N(C)C(=O)[C@H](C(C)C)N(C)C(=O)C2(CCCC2)NC(=O)[C@@H]2CCCN2C(=O)[C@H](CCc2ccc(C(F)(F)F)c(Cl)c2)NC(=O)[C@@H](C)N(C)C(=O)[C@H](CC2CCCCC2)N(C)C(=O)[C@@H]2CCCN2C(=O)CN(C)C1=O` [Compound 1788] ([NMeA]I[Sar]P[NMeCha][dNMeA][hPhe(3-Cl-4-CF3)]P[Ac5c][NMeV][NMeD]-Morpholide; lactam N-11) is 0.27 log units higher in pIC50: 8.10 for the first, 8.37 for the second. The second is the more potent here.

First: CC(C)C[C@H]1C(=O)N[C@@H](CC2CCC2)C(=O)N(C)CC(=O)N(C)CC(=O)N(C)[C@@H](CC2CCCCC2)C(=O)N(C)CC(=O)N[C@@H](CCc2ccc(C(F)(F)F)c(Cl)c2)C(=O)N2CCC[C@H]2C(=O)NC2(CCCC2)C(=O)N(C)[C@@H](C2CCCCC2)C(=O)N(C)[C@H](C(=O)N2CCCCC2)CC(=O)N1C [Compound 1759] ([NMeL][Cba][Sar][Sar][NMeCha][Sar][hPhe(3-Cl-4-CF3)]P[Ac5c][NMeChg][NMeD]-Piperidide; lactam N-11)
Second: CC[C@H](C)[C@@H]1NC(=O)[C@H](CC(C)C)N(C)C(=O)C[C@H](C(=O)N2CCCC2)N(C)C(=O)[C@H](C2CCCCC2)N(C)C(=O)C2(CCCC2)NC(=O)[C@@H]2CCCN2C(=O)[C@H](CCc2ccc(C(F)(F)F)c(Cl)c2)NC(=O)CN(C)C(=O)[C@H](CC2CCCCC2)N(C)C(=O)CN(C)C(=O)CN(C)C1=O [Compound 1781] ([NMeL]I[Sar][Sar][NMeCha][Sar][hPhe(3-Cl-4-CF3)]P[Ac5c][NMeChg][dNMeD]-Pyrrolidide; lactam N-11)
The pIC50 of the first is 1.26 log units higher: 8.57 for the first, 7.31 for the second.

Compared with `CC[C@H](C)[C@@H]1NC(=O)[C@H](CC(C)C)N(C)C(=O)C[C@@H](C(=O)N(C)C)N(C)C(=O)[C@H](C2CCCC2)N(C)C(=O)C2(CCCC2)NC(=O)[C@@H]2CCCN2C(=O)[C@H](CCc2ccc(C(F)(F)F)c(Cl)c2)NC(=O)CN(C)C(=O)[C@H](Cc2ccc(C)cc2)N(C)C(=O)CN(C)C(=O)CN(C)C1=O` [Compound 1779] ([NMeL]I[Sar][Sar][NMePhe(4-Me)][Sar][hPhe(3-Cl-4-CF3)]P[Ac5c][NMeGly(cPent)][NMeD]-NMe2; lactam N-11), `CC[C@H](C)[C@@H]1NC(=O)[C@H](CC(C)C)N(C)C(=O)C[C@@H](C(=O)N2CCCCC2)N(C)C(=O)[C@H](CCC(F)F)N(C)C(=O)C2(CCCC2)NC(=O)[C@@H]2CCCN2C(=O)[C@H](CCc2ccc(C(F)(F)F)c(Cl)c2)NC(=O)CN(C)C(=O)[C@H](CC2CCCCC2)N(C)C(=O)CN(C)C(=O)CN(C)C1=O` [Compound 1782] ([NMeL]I[Sar][Sar][NMeCha][Sar][hPhe(3-Cl-4-CF3)]P[Ac5c][NMeNva(5,5-F2)][NMeD]-Piperidide; lactam N-11) is 0.62 log units lower in pIC50: 9.28 for the first, 8.66 for the second. The first is the more potent here.
